Laboratory results: patent US6310095A, “Inhibitors of protein isoprenyl transferases” (University of Pittsburgh, priority 1998, dated 2001)
Structures can show the parent of a compound that is named as a salt. Values belong to the compound of their own block, whether it stands above or below them.

Target: T1, protein farnesyltransferase (Rattus norvegicus, UniProt Q02293+Q04631)
T1 construct: Rat brain protein farnesyltransferase activity is measured; from tissue; host or cells: rat brain; purified according to Reiss et al., Cell 62:81-88 (1990), steps one through three
Assay: in vitro inhibition of protein farnesyltransferase (scintillation proximity assay, biotin-K Ras B fragment)
Format: biochemical
Settings: for inhibition at 0.1 µM / inhibition at 1 µM / inhibition at 0.01 µM: read-out: % inhibition of farnesyltransferase; for inhibition at 10 µM: at 1 × 10^-5 M
In short: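 Rat brain enzyme, purified through three steps, in a scintillation proximity assay kit with biotin-K Ras B fragment substrate at 0.1 mM final. Value is % inhibition of farnesylation.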

SMILES: CSCC[C@H](NC(=O)c1ccc(NC[C@@H]2C[C@H](S)CN2)cc1-c1ccccc1)C(=O)O [Example 959, N-[4-((2S,4S)-4-thiolpyrrolidin-2-ylmethylamino)-2-phenylbenzoyl]methionine]
- inhibition at 0.1 µM (at 1 × 10^-7 M): > 50%

SMILES: Cc1ccccc1-c1cc(CCc2ccc(Oc3ccccc3)cc2)ccc1C(=O)N[C@@H](CC[S+](C)[O-])C(=O)O (stereo partly shown) [Example 463]
- % inhibition of farnesyltransferase (at 1 × 10^-6 M): 91%

SMILES: CCCCS(=O)(=O)N(Cc1ccc(C(=O)N[C@@H](CCSC)C(=O)O)c(-c2ccccc2C)c1)[C@H](CSCC)CC1CCCCC1 [Example 950, N-[4-N-Butanesulfoyl-N-(3-Cyclohexyl-1-ethylthiopropan-2-yl)aminomethyl-2-(2-methylphenyl)-benzoyl]methionine]
- inhibition at 0.1 µM (at 1 × 10^-7 M): 71%

SMILES: CSCC[C@H](NC(=O)c1ccc(COCc2ccc(-c3ccccc3F)o2)cc1-c1ccccc1C)C(=O)[O-].[Li+] [Example 437]
- % inhibition of farnesyltransferase (at 1 × 10^-7 M): 89%

SMILES: CSCC[C@H](NC(=O)c1ccc(/C=C/CC2CCCCC2)cc1-c1ccccc1C)C(=O)O [Example 471]
- % inhibition of farnesyltransferase (at 1 × 10^-6 M): 94%

SMILES: CSCC[C@H](NC(=O)c1ccc(NC(=O)OCCCl)cc1-c1ccccc1)C(=O)O [Example 979, N-[4-(N-2-chloroethoxycarbonyl)amino-2-phenylbenzoyl]methionine]
- inhibition at 1 µM (at 1 × 10^-6 M): 26%

SMILES: CSCC[C@H](NC(=O)c1ccc(CN(Cc2cncs2)S(C)(=O)=O)cc1-c1ccccc1C)C(=O)O [Example 878, N-[4-N-(methanesulfonyl-N-thiazol-2-ylmethyl)aniinomethyl-2-(2-methylphenyl)-benzoyl]methionine]
- inhibition at 1 µM (at 1 × 10^-6 M): 95%

SMILES: CSCC[C@H](NC(=O)c1ccc(COCc2ccc(-c3ccc(F)cc3)o2)cc1-c1ccc(F)cc1Cl)C(=O)[O-].[Li+] [Example 869]
- % inhibition of farnesyltransferase (at 1 × 10^-7 M): 92%

SMILES: COc1cc(Cl)ccc1C(=O)Nc1ccc(C(=O)N[C@@H](CCSC)C(=O)O)c(-c2ccccc2)c1 [Example 753]
- inhibition at 10 µM: 55%

SMILES: COc1cccc(COCc2ccc(C(=O)N[C@@H](CCSC)C(=O)[O-])c(-c3ccccc3C)c2)c1.[Li+] [Example 932]
- % inhibition of farnesyltransferase (at 1 × 10^-8 M): 60%

SMILES: CSCC[C@H](NC(=O)c1ccc(COCc2cc(-c3ccc(Cl)cc3)co2)cc1-c1ccccc1C)C(=O)[O-].[Li+] [Example 904]
- % inhibition of farnesyltransferase (at 1 × 10^-8 M): 85%

SMILES: CSCC[C@H](NC(=O)c1ccc(CNc2cc(C)cc(C)c2)cc1-c1ccccc1)C(=O)O [Example 709]
- inhibition at 10 µM: 55%

SMILES: CCCCS(=O)(=O)N(CCCc1ccccc1)Cc1ccc(C(=O)N[C@@H](CCSC)C(=O)O)c(-c2ccccc2C)c1 [Example 927, N-[4-(N-Butanesulfonyl-N-(3-phenylpropyl)aminomethyl)-2-(2-methylphenyl)benzoyl]methionine]
- inhibition at 0.01 µM (at 1 × 10^-8 M): 74%

SMILES: CSCC[C@H](NC(=O)c1ccc(CNc2ccc(F)cc2)cc1-c1ccccc1)C(=O)O [Example 687]
- inhibition at 10 µM: 78%

SMILES: CSCC[C@H](NC(=O)c1ccc(CSc2ccc(F)cc2)cc1-c1ccccc1C)C(=O)O [Example 740]
- % inhibition of farnesyltransferase (at 1 × 10^-7 M): 94%

SMILES: COc1ccccc1CCOCc1ccc(C(=O)N[C@@H](CCSC)C(=O)O)c(-c2ccccc2C)c1 [Example 589]
- % inhibition of farnesyltransferase (at 1 × 10^-7 M): 91%

SMILES: CSCC[C@H](NC(=O)c1ccc(CN(Cc2cncs2)S(=O)(=O)c2ccc(C)cc2)cc1-c1ccccc1C)C(=O)O [Example 877]
- inhibition at 0.01 µM (at 1 × 10^-8 M): 68%

SMILES: CSCC[C@H](NC(=O)c1ccc(CN(Cc2ccc3c(c2)OCO3)c2cnccn2)cc1-c1ccccc1C)C(=O)O [Example 838, N-[4-N-(1,3-benzodiox-5-yl)-N-pyridizin-2-ylaminomethyl-2-(2-methylphenyl)benzoyl]methionine lithium salt]
- inhibition at 0.01 µM (at 1 × 10^-8 M): 92%

SMILES: CSCC[C@H](NC(=O)c1ccc(COCc2ccc(-c3ccc(Cl)cc3)o2)cc1-c1ccccc1C)C(=O)NS(=O)(=O)c1ccccc1 [Example 819]
- % inhibition of farnesyltransferase (at 1 × 10^-8 M): 76%

SMILES: CSCC[C@H](NC(=O)c1ccc(CN[C@H](CO)CC2CCCCC2)cc1-c1ccccc1C)C(=O)O [Example 617, N-[4-(3-cyclohexylpropan-1-ol-2-ylaminomethyl)-2-(2-methylphenyl)benzoyl]methionine]
- inhibition at 1 µM (at 1 × 10^-6 M): 99%

SMILES: CSCC[C@H](NC(=O)c1ccc(CCc2ccc(Oc3ccccc3)cc2)cc1-c1ccccc1C)C(=O)[O-].[Li+] [Example 462]
- % inhibition of farnesyltransferase (at 1 × 10^-7 M): 91%

SMILES: CCSCC(CC1CCCCC1)N(Cc1ccc(C(=O)N[C@@H](CCSC)C(=O)O)c(-c2ccccc2C)c1)CC(C)C (stereo partly shown) [Example 945, N-[4-N-(3-Cyclohexyl-1-ethylthiopropan-2-yl)-N-isobutylaminomethyl-2-(2-methylphenyl)benzoyl]-methionine]
- % inhibition of farnesyltransferase (at 1 × 10^-7 M): 80%

SMILES: CSCC[C@H](NC(=O)c1ccc(CSCc2ccccc2C)cc1-c1ccccc1C)C(=O)[O-].[Li+] [Example 557]
- % inhibition of farnesyltransferase (at 1 × 10^-6 M): 93%

SMILES: CCSC[C@H](CC1CCCCC1)N(C=O)Cc1ccc(C(=O)N[C@@H](CCSC)C(=O)O)c(-c2ccccc2C)c1 [Example 946, N-[4-N-(3-Cyclohexyl-1-ethylthiopropan-2-yl)-N-formylaminomethyl-2-(2-methylphenyl)benzoyl]methionine]
- inhibition at 0.01 µM (at 1 × 10^-8 M): 52%

SMILES: CSCC[C@H](NC(=O)c1ccc(/C=C/CCc2ccccc2)cc1-c1ccccc1C)C(=O)O [Example 472]
- % inhibition of farnesyltransferase (at 1 × 10^-6 M): 97%

SMILES: CSCC[C@H](NC(=O)c1ccc(CN[C@H](CSc2ccccc2C)CC2CCCCC2)cc1-c1ccccc1C)C(=O)O [Example 767, lithium salt]
- inhibition at 0.01 µM (at 1 × 10^-8 M): 97%

SMILES: CSCC[C@H](NC(=O)c1ccc(COCc2ccc(Cl)cc2)cc1-c1ccccc1C)C(=O)[O-].[Li+] [Example 933]
- % inhibition of farnesyltransferase (at 1 × 10^-7 M): 91%

SMILES: CSCC[C@H](NC(=O)c1ccc(S(=O)(=O)N(Cc2ccccc2)c2ccccc2)cc1-c1ccccc1C)C(=O)[O-].[Li+] [Example 768]
- % inhibition of farnesyltransferase (at 1 × 10^-6 M): 67%

SMILES: CSCC[C@H](NC(=O)c1ccc(COCc2ccccc2Cl)cc1-c1ccccc1C)C(=O)[O-].[Li+] [Example 930]
- % inhibition of farnesyltransferase (at 1 × 10^-8 M): 66%

SMILES: CCSC[C@H](CC(C)C)NCc1ccc(C(=O)N[C@@H](CCSC)C(=O)O)c(-c2ccccc2C)c1 [Example 905, N-[4-(N-(1-ethylthio-4-methylpentan-2-yl)aminomethyl)-2-(2-methylphenyl)benzoyl]-methionine]
- inhibition at 0.01 µM (at 1 × 10^-8 M): 86%

SMILES: CSCC[C@H](NC(=O)c1ccc(CNc2cccc(O)c2)cc1-c1ccccc1)C(=O)O [Example 676]
- inhibition at 10 µM: 76%

SMILES: CSCC[C@H](NC(=O)c1ccc(COCCCC2CCCCC2)cc1-c1ccccc1C)C(=O)O [Example 405]
- % inhibition of farnesyltransferase (at 1 × 10^-6 M): 98%

SMILES: CSCC[C@H](NC(=O)c1ccc(COC2CCC(NC(=O)OC(C)(C)C)CC2)cc1-c1ccccc1C)C(=O)[O-].[Li+] (stereo partly shown) [Example 817]
- % inhibition of farnesyltransferase (at 1 × 10^-7 M): 60%

More lines, now with the values ahead:

- inhibition at 10 µM: 86%
SMILES: CSCC[C@H](NC(=O)c1ccc(CNc2cc[nH]n2)cc1-c1ccccc1)C(=O)O [Example 370]

- % inhibition of farnesyltransferase (at 1 × 10^-7 M): 81%
SMILES: CCCC(CCC)NOCc1ccc(C(=O)N[C@@H](CCSC)C(=O)O)c(-c2ccccc2C)c1 [Example 929]

- % inhibition of farnesyltransferase (at 1 × 10^-6 M): 36%
SMILES: COc1ccc(CCNS(=O)(=O)c2ccc(C(=O)N[C@@H](CCSC)C(=O)O)c(-c3ccccc3C)c2)cc1OC [Example 776]

- % inhibition of farnesyltransferase (at 1 × 10^-7 M): 81%
SMILES: CSCC[C@H](NC(=O)c1ccc(COc2cccc3ccccc23)cc1-c1ccccc1C)C(=O)O [Example 574]

- inhibition at 1 µM (at 1 × 10^-6 M): 84%
SMILES: CSCC[C@H](NC(=O)c1ccc(NCC2CNCCN2)cc1-c1ccccc1)C(=O)O (stereo partly shown) [Example 286, [4-(2-piperazinylmethylamino)-2-phenylbenzoyl]methionine]

- % inhibition of farnesyltransferase (at 1 × 10^-6 M): 53%
SMILES: CSCC[C@H](NC(=O)c1ccc(/C=C/c2ccccc2)cc1-c1ccccc1C)C(=O)O [Example 791]

- inhibition at 1 µM (at 1 × 10^-6 M): 37%
SMILES: CSCC[C@H](NC(=O)c1ccc(CNc2ccccc2Oc2ccccc2)cc1-c1ccccc1)C(=O)O [Example 645]

- % inhibition of farnesyltransferase (at 1 × 10^-8 M): 90%
SMILES: CSCC[C@H](NC(=O)c1ccc(CSCc2ccccc2)cc1-c1ccccc1C)C(=O)NS(=O)(=O)c1ccc(C)cc1 [Example 586]

- inhibition at 0.01 µM (at 1 × 10^-8 M): 69%
SMILES: CSCC[C@H](NC(=O)c1ccc(CN(Cc2cncs2)C2CCSCC2)cc1-c1ccccc1C)C(=O)O [Example 881]

- % inhibition of farnesyltransferase (at 1 × 10^-6 M): 98%
SMILES: CSCC[C@H](NC(=O)c1ccc(CN(C)C(CC2CCCCC2)C(=O)N2CCCCC2)cc1-c1ccccc1C)C(=O)O (stereo partly shown) [Example 301]

- inhibition at 1 µM (at 1 × 10^-6 M): 96%
SMILES: CSCC[C@H](NC(=O)c1ccc(CN(Cc2ccc(C(F)(F)F)cc2)c2ccccc2)cc1-c1ccccc1C)C(=O)O [Example 782, N-[4-N-(N-phenyl-N-(4-trifluoromethylbenzyl)aminomethyl)-2-(2-methylphenyl)-benzoyl]methionine lithium salt]

- inhibition at 0.01 µM (at 1 × 10^-8 M): 88%
SMILES: CCSC[C@H](CC1CCCCC1)N(C)Cc1ccc(C(=O)N[C@@H](CCSC)C(=O)O)c(-c2ccccc2C)c1 [Example 944, N-[4-N-(3-Cyclohexyl-1-ethylthiopropan-2-yl)-N-methylaminomethyl-2-(2-methylphenyl)benzoyl]-methionine hydrochloride salt]

- % inhibition of farnesyltransferase (at 1 × 10^-7 M): 97%
SMILES: CSCC[C@H](NC(=O)c1ccc(COCc2ccc(-c3ccc(Cl)cc3)o2)cc1-c1ccccc1C)C(=O)O [Example 443]

- inhibition at 1 µM (at 1 × 10^-6 M): 96%
SMILES: CSCC[C@H](NC(=O)c1ccc(CNCCC2CCCCC2)cc1-c1ccccc1C)C(=O)O [Example 607, N-[4-(N-2-cyclohexylethylaminomethyl)-2-(2-methylphenyl)benzoyl]methionine Trifluoroacetate Salt]

- % inhibition of farnesyltransferase (at 1 × 10^-7 M): 92%
SMILES: CSCC[C@H](NC(=O)c1ccc(CCc2ccc(Oc3ccccc3Cl)cc2)cc1-c1ccccc1C)C(=O)O [Example 855]

- inhibition at 0.1 µM (at 1 × 10^-7 M): 89%
SMILES: CSCC[C@H](NC(=O)c1ccc(CNCCc2c[nH]c3ccccc23)cc1-c1ccccc1C)C(=O)O [Example 519, N-[4-N-(2-indol-3-ylethyl)aminomethyl-2-(2-methylphenyl)benzoyl]methionine lithium salt]
